This is an account of results in ChEMBL document CHEMBL1250443, “Microarray-based method for monitoring yeast overexpression strains reveals small-molecule targets in TOR pathway” (Nat Chem Biol, 2006).

Structures are written as SMILES.

A short description of test [1]: Inhibition of TOR signaling in wild-type Saccharomyces cerevisiae transformed with overexpression plasmids assessed as increased SSE1 gene expression by microarray.
The nature of test [2]: Inhibition of TOR signaling in wild-type Saccharomyces cerevisiae transformed with overexpression plasmids assessed as increased YOR042W gene expression by microarray.
Test [3] in a line: Inhibition of TOR signaling in wild-type Saccharomyces cerevisiae transformed with overexpression plasmids assessed as decreased TUL1 gene expression by microarray.
Test [4] can be described thus: Inhibition of TOR signaling in wild-type Saccharomyces cerevisiae transformed with overexpression plasmids assessed as increased CIT1 gene expression by microarray.
The nature of test [5]: Inhibition of TOR signaling in wild-type Saccharomyces cerevisiae transformed with overexpression plasmids assessed as increased CDC33 gene expression by microarray.
Test [6] is described as follows: Inhibition of TOR signaling in wild-type Saccharomyces cerevisiae transformed with overexpression plasmids assessed as decreased YCR007C gene expression by microarray.
Test [7] in a line: Inhibition of TOR signaling in wild-type Saccharomyces cerevisiae transformed with overexpression plasmids assessed as decreased GIS4 gene expression by microarray.
Test [8] has as its system Saccharomyces cerevisiae. Put plainly: Decrease of RIM11 gene expression in wild-type Saccharomyces cerevisiae transformed with overexpression plasmids by microarray. Format: functional.
Test [9] is described as follows: Inhibition of TOR signaling in wild-type Saccharomyces cerevisiae transformed with overexpression plasmids assessed as decreased CDC16 gene expression by microarray.
The subject of test [10] is Saccharomyces cerevisiae. The test is described as follows: Increase of FMP38 gene expression in wild-type Saccharomyces cerevisiae transformed with overexpression plasmids by microarray. Format: functional.
Test [11] is described as follows: Inhibition of TOR signaling in wild-type Saccharomyces cerevisiae transformed with overexpression plasmids assessed as decreased YMR034C gene expression by microarray.
Test [12] can be described thus: Inhibition of TOR signaling in wild-type Saccharomyces cerevisiae transformed with overexpression plasmids assessed as increased GPM3 gene expression by microarray.
Test [13] is described as follows: Inhibition of TOR signaling in wild-type Saccharomyces cerevisiae transformed with overexpression plasmids assessed as decreased EFR3 gene expression by microarray.
The nature of test [14]: Inhibition of TOR signaling in wild-type Saccharomyces cerevisiae transformed with overexpression plasmids assessed as decreased CDC42 gene expression by microarray.
A short description of test [15]: Inhibition of TOR signaling in wild-type Saccharomyces cerevisiae transformed with overexpression plasmids assessed as increased THI21 gene expression by microarray.
A short description of test [16]: Inhibition of TOR signaling in wild-type Saccharomyces cerevisiae transformed with overexpression plasmids assessed as decreased DCR2 gene expression by microarray.
The nature of test [17]: Inhibition of TOR signaling in wild-type Saccharomyces cerevisiae transformed with overexpression plasmids assessed as decreased YKL174C gene expression by microarray.
Test [18] concerns Saccharomyces cerevisiae. The test is described as follows: Decrease of YKR75C gene expression in wild-type Saccharomyces cerevisiae transformed with overexpression plasmids by microarray. Format: functional.
Test [19] in a line: Inhibition of TOR signaling in wild-type Saccharomyces cerevisiae transformed with overexpression plasmids assessed as decreased YLR224W gene expression by microarray.
Test [20] can be described thus: Inhibition of TOR signaling in wild-type Saccharomyces cerevisiae transformed with overexpression plasmids assessed as increased WHI4 gene expression by microarray.
Test [21] can be described thus: Inhibition of TOR signaling in wild-type Saccharomyces cerevisiae transformed with overexpression plasmids assessed as decreased ATX2 gene expression by microarray.

As to `CO[C@H]1C[C@@H]2CC[C@@H](C)[C@@](O)(O2)C(=O)C(=O)N2CCCC[C@H]2C(=O)O[C@H]([C@H](C)C[C@@H]2CC[C@@H](O)[C@H](OC)C2)CC(=O)[C@H](C)/C=C(\C)[C@@H](O)[C@@H](OC)C(=O)[C@H](C)C[C@H](C)/C=C/C=C/C=C/1C` [SIROLIMUS], the fold change (FC) is 11.4 in [1]; 2.7 in [2]; -3.7 in test [3]; 2.1 in test [4]; 2 in test [5]; -2.2 in [6]. Further, the fold change (FC) in test [7] is -7.2; in [8] it was 2.9; in [9], -2.3; in test [10] it was -3.2; in [11], -4.4; in test [12], 2.5. Moreover, the fold change (FC) in [13] is -3.1; in test [14], -2; in [15], 2.2; in test [16] it was -5.9; in test [17], -5.6; in [18], -2.5. The fold change (FC) in test [19] is -2.9; in test [20], 3.4; in test [21] it was -2.
